Test results reported in ChEMBL document CHEMBL1275464, “Characterization of the carbapenem-hydrolyzing oxacillinase oxa-58 in an Acinetobacter genospecies 3 clinical isolate” (2008).
In brackets after ≈: the same amount, converted by molar mass.

Key:
Type in all cases: functional
Acinetobacter pittii = experiment: Antimicrobial activity against Acinetobacter genospecies 3 isolate Ac057 expressing beta-lactamase Oxa-58 by broth microdilution method
Acinetobacter baumannii [1] = experiment: Antimicrobial activity against Acinetobacter baumannii isolate Ac058 expressing beta-lactamase Oxa-58 by broth microdilution method
Acinetobacter baumannii [2] = experiment: Antimicrobial activity against Acinetobacter baumannii isolate Ac058 expressing beta-lactamase Oxa-58 by broth microdilution method in presence of beta-lactamase inhibitor Sulbactam

`CC[C@H]1OC(=O)[C@H](C)[C@@H](O[C@H]2C[C@@](C)(OC)[C@@H](O)[C@H](C)O2)[C@H](C)[C@@H](O[C@@H]2O[C@H](C)C[C@H](N(C)C)[C@H]2O)[C@](C)(O)C[C@@H](C)CN(C)[C@H](C)[C@@H](O)[C@]1(C)O` [AZITHROMYCIN] showed an MIC (Acinetobacter pittii) of 4 µg/mL (≈ 5.34 µM) and an MIC (Acinetobacter baumannii [1]) of 128 µg/mL (≈ 171 µM).
With `CO[C@H]1/C=C/O[C@@]2(C)Oc3c(C)c(O)c4c(O)c(c(/C=N/N5CCN(C)CC5)c(O)c4c3C2=O)NC(=O)/C(C)=C\C=C\[C@H](C)[C@H](O)[C@@H](C)[C@@H](O)[C@@H](C)[C@H](OC(C)=O)[C@@H]1C` [RIFAMPIN] the MIC (Acinetobacter pittii) was 2 µg/mL (≈ 2.43 µM) and the MIC (Acinetobacter baumannii [1]) was 2 µg/mL (≈ 2.43 µM).
Work on `C[C@H]1c2cccc(O)c2C(=O)C2=C(O)[C@]3(O)C(=O)C(C(N)=O)=C(O)[C@@H](N(C)C)[C@@H]3[C@@H](O)[C@@H]21.O` [DOXYCYCLINE] yielded an MIC (Acinetobacter pittii) of under 0.5 µg/mL and an MIC (Acinetobacter baumannii [1]) of 16 µg/mL.
Work on `CC1(C)S[C@@H]2[C@H](NC(=O)[C@H](N)c3ccccc3)C(=O)N2[C@H]1C(=O)O` [AMPICILLIN] yielded an MIC (Acinetobacter pittii) of 256 µg/mL (≈ 733 µM), an MIC (Acinetobacter baumannii [1]) of 256 µg/mL (≈ 733 µM) and an MIC (Acinetobacter baumannii [2]) of 64 µg/mL.
GENTAMICIN was tested, and the MIC (Acinetobacter pittii) was under 1 µg/mL and the MIC (Acinetobacter baumannii [1]) was 16 µg/mL.
For `NC[C@H]1O[C@H](O[C@H]2[C@H](O)[C@@H](O[C@H]3O[C@H](CO)[C@@H](O)[C@H](N)[C@H]3O)[C@H](N)C[C@@H]2N)[C@H](N)C[C@@H]1O` [TOBRAMYCIN], the MIC (Acinetobacter pittii) was 0.25 µg/mL (≈ 0.535 µM) and the MIC (Acinetobacter baumannii [1]) was 64 µg/mL (≈ 137 µM).
For `C[C@@H](O)[C@H]1C(=O)N2C(C(=O)O)=C(S[C@@H]3CN[C@H](C(=O)N(C)C)C3)[C@H](C)[C@H]12` [MEROPENEM], the MIC (Acinetobacter pittii) was 8 µg/mL (≈ 20.9 µM) and the MIC (Acinetobacter baumannii [1]) was 8 µg/mL (≈ 20.9 µM).
Work on `CCN1CCN(C(=O)N[C@@H](C(=O)N[C@@H]2C(=O)N3[C@@H]2SC(C)(C)[C@@H]3C(=O)O)c2ccccc2)C(=O)C1=O` [PIPERACILLIN] yielded an MIC (Acinetobacter pittii) of 512 µg/mL (≈ 989 µM) and an MIC (Acinetobacter baumannii [1]) of 512 µg/mL (≈ 989 µM).
With `CC(=O)OCC1=C(C(=O)O)N2C(=O)[C@@H](NC(=O)Cc3cccs3)[C@H]2SC1` [CEPHALOTHIN] the MIC (Acinetobacter pittii) was 256 µg/mL (≈ 646 µM) and the MIC (Acinetobacter baumannii [1]) was 256 µg/mL (≈ 646 µM).
In the case of `NCC[C@H](O)C(=O)N[C@@H]1C[C@H](N)[C@@H](O[C@H]2O[C@H](CN)[C@@H](O)[C@H](O)[C@H]2O)[C@H](O)[C@H]1O[C@H]1O[C@H](CO)[C@@H](O)[C@H](N)[C@H]1O` [AMIKACIN], the MIC (Acinetobacter pittii) is reported as 0.5 µg/mL (≈ 0.854 µM) and the MIC (Acinetobacter baumannii [1]) is reported as 256 µg/mL (≈ 437 µM).
POLYMYXIN B gave an MIC (Acinetobacter pittii) of 2 µg/mL and an MIC (Acinetobacter baumannii [1]) of 1 µg/mL.
Work on `CC(C)(O/N=C(\C(=O)N[C@@H]1C(=O)N2C(C(=O)[O-])=C(C[n+]3ccccc3)CS[C@H]12)c1csc(N)n1)C(=O)O` [CEFTAZIDIME] yielded an MIC (Acinetobacter pittii) of 8 µg/mL (≈ 14.6 µM) and an MIC (Acinetobacter baumannii [1]) of 256 µg/mL (≈ 468 µM).
Molecule `O=C(O)c1cn(C2CC2)c2cc(N3CCNCC3)c(F)cc2c1=O` [CIPROFLOXACIN] has an MIC (Acinetobacter pittii) of 32 µg/mL (≈ 96.6 µM).
For `C[C@@H](O)[C@H]1C(=O)N2C(C(=O)O)=C(SCCNC=N)C[C@H]12` [IMIPENEM ANHYDROUS], the MIC (Acinetobacter pittii) was over 32 µg/mL and the MIC (Acinetobacter baumannii [1]) was over 32 µg/mL.
`CO[C@@]1(NC(=O)Cc2cccs2)C(=O)N2C(C(=O)O)=C(COC(N)=O)CS[C@@H]21` [CEFOXITIN] was tested, and the MIC (Acinetobacter pittii) was 256 µg/mL (≈ 599 µM) and the MIC (Acinetobacter baumannii [1]) was 256 µg/mL (≈ 599 µM).
Molecule `CO/N=C(\C(=O)N[C@@H]1C(=O)N2C(C(=O)[O-])=C(C[N+]3(C)CCCC3)CS[C@H]12)c1csc(N)n1` [CEFEPIME] has an MIC (Acinetobacter pittii) of 8 µg/mL (≈ 16.6 µM) and an MIC (Acinetobacter baumannii [1]) of 64 µg/mL (≈ 133 µM).
